The text below walks through data of patent publication US11844795B2, “Combination therapy for cancer treatment” (Ipsen Biopharm Ltd., priority 2015, dated 2023).

One data set concerns the target PARP 1 (Homo sapiens, UniProt P09874). The conditions noted are these: cell-free assay; cited from earlier work.
In the next data set the test system is BT20. Nature of the data set: Cell survival (CellTiter-Glo) after SN-38 and/or PARP inhibitor. In kind it is cell-based. The method, then: (§1) Cells were plated at 1000 cells/well and then incubated for 24 hours. […] The plates were then allowed to incubate for 72 hours period. After the 72 hour incubation period the media was removed and cell viability was determined using the CellTiter-Glo® cell viability assay (Promega, Madison Wis.) according to the product instructions.
For orientation: In ATP-based viability assays light output follows the ATP content of the culture.

The subject of a further data set is HCC38. The data set is described as above. In kind it is cell-based. The method, then:
as §1

For another data set, the system named is HCC1187. The data set is described as above. Type of data set: cell-based. The settings on record: Homo sapiens, HCC1187, read-out: IC50 log10 (μM) (converted). The method, then:
as §1

The test system of the next data set is HCC1954. Described as above. In kind it is cell-based. The method, then: as §1
The subject of the next data set is SUM159PT. The data set is described as above. Type of data set: cell-based. How it is done:
as §1

A further data set relates to PAR. The settings on record: Table 2B, unit inferred; cited from earlier work.
For another data set, the target named is PARG (Homo sapiens, UniProt Q86W56). The settings on record: cited from earlier work.
Chain of PARG (Q86W56 whole entry, species assumed): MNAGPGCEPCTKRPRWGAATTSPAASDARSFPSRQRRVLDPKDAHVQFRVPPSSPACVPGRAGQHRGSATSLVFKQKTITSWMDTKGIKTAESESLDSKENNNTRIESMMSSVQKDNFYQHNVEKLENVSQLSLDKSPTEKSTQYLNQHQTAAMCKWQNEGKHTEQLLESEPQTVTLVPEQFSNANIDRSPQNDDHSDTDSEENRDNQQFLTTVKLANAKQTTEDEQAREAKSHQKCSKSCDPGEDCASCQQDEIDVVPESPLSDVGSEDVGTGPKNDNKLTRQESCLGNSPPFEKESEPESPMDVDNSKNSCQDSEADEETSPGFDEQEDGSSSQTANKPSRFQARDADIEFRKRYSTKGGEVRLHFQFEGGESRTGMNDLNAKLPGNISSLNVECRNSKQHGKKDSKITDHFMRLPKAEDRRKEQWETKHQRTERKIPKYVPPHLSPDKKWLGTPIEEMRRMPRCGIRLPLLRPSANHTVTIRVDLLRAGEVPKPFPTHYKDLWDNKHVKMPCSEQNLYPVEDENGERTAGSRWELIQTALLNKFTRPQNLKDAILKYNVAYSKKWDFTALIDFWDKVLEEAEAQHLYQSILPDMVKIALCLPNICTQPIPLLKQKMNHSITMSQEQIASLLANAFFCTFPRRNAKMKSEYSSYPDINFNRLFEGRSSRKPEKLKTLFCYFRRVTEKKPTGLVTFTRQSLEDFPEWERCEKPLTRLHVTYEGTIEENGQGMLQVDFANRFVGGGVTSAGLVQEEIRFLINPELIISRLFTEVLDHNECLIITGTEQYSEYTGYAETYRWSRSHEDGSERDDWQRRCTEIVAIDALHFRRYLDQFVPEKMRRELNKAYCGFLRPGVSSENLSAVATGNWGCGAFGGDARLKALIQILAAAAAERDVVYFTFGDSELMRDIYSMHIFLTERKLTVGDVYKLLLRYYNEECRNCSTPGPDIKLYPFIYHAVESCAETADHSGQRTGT
Data set [1] deals with DMS-114 small cell lung cancer cells. Description: % cell number over time, SN-38 with PARP inhibitors. Type of data set: cell-based. The conditions noted are these: SN-38 at 2 nM; DMS-114 SCLC cells.
Data set [2] deals with small cell lung cancer (SCLC), pancreatic cancer and breast cancer cell lines. Nature of the data set: Growth inhibition, SN-38 with PARP inhibitors. Type of data set: cell-based.
Data set [3] deals with C33A cervical cancer xenograft. Nature of the data set: C33A cervical cancer xenograft model. The conditions noted are these: MM-398 2 mg/kg weekly Day 1; veliparib 50 mg/kg orally Days 4-6; FIG. 7B.
The next data set addresses SIRT2 (Homo sapiens, UniProt Q8IXJ6). The conditions noted are these: cited from earlier work.
In data set [4] the test system is MS751 cervical cancer xenograft. Description: MS751 cervical cancer xenograft model. The settings on record: MM-398 5 mg/kg weekly Day 1; veliparib 50 mg/kg orally Days 4-6; FIG. 7A.
Data set [5] concerns CFPAC-1 pancreatic cancer cells. Description: % cell number over time, SN-38 with PARP inhibitors. Type of data set: cell-based. The settings on record: SN-38 at 2 nM.
The next data set has as its system cancer cells. Nature of the data set: Active range based on XTC008.

Chain of SIRT2 (Q8IXJ6 whole entry, species assumed): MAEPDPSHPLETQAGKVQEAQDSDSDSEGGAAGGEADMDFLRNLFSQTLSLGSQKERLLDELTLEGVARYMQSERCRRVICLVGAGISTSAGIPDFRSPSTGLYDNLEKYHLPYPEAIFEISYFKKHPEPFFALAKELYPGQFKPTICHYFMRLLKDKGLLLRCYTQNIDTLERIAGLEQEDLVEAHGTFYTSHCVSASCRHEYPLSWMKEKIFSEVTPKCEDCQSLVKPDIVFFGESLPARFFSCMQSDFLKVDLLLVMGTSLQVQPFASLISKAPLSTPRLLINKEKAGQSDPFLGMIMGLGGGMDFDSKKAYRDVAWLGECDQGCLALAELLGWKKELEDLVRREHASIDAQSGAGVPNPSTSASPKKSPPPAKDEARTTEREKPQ
Chain of PARP 1 (P09874 whole entry, species assumed): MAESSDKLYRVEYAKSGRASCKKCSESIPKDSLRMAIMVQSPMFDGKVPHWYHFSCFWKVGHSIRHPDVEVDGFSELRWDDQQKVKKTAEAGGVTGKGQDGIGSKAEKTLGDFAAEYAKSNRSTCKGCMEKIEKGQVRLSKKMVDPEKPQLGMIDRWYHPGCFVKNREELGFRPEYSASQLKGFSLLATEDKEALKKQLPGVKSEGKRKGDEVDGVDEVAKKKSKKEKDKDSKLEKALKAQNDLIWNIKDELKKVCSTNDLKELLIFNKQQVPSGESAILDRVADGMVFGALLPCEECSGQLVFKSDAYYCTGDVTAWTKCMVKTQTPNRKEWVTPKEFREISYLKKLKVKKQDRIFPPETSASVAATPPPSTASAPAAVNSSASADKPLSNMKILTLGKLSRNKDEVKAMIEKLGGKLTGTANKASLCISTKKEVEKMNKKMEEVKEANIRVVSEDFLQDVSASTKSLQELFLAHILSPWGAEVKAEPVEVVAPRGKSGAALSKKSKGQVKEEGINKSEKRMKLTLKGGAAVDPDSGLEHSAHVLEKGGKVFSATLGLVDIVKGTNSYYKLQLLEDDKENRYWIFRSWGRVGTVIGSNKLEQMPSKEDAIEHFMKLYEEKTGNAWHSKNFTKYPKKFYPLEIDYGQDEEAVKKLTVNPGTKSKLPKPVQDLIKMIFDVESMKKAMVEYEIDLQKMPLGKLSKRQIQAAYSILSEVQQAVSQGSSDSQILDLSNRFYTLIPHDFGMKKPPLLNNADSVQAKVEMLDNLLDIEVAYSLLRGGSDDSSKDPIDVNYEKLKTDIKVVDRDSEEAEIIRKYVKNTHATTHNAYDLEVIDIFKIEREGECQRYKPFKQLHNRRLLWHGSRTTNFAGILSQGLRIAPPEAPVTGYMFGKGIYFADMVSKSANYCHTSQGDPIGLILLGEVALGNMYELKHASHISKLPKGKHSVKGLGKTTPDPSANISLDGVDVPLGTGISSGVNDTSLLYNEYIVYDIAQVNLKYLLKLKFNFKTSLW

By Ki is commonly meant the dissociation constant of the complex between target and ligand, obtained from inhibition or displacement. Turning to `CN(C)Cc1ccc(-c2nc3cccc4c3n2CCNC4=O)cc1` [AG-14361], the inhibition constant (Ki) on PARP 1 was under 0.005 µM.

Usually IC50 stands for the concentration needed to halve the response being measured. As usually defined, the EC50 is the concentration needed to bring the measured effect to its halfway point. In the case of `Cn1ncnc1[C@H]1c2n[nH]c(=O)c3cc(F)cc(c23)N[C@@H]1c1ccc(F)cc1` [Talazoparib], the “Maximum Kill Percent” value with BT20 (BT20, Exp. 4, single agent) came out at 100%; with HCC38 (HCC38, Exp. 4, single agent), 92%; with HCC1954 (HCC1954, Exp. 4, single agent), 100%; with SUM159PT (SUM159PT, Exp. 4, single agent), 94%. Besides, the IC50 in the data set with BT20 (Homo sapiens, BT-20, read-out: IC50 log10 (μM) (converted)) is 28.2 µM; in the data set on HCC38 (Homo sapiens, HCC38, read-out: IC50 log10 (μM) (converted)) it was 0.0589 µM; with HCC1187, 191 µM; in the data set with HCC1954 (Homo sapiens, HCC1954, read-out: IC50 log10 (μM) (converted)) it was 4370 µM; with SUM159PT (Homo sapiens, SUM-159-PT, read-out: IC50 log10 (μM) (converted)), 0.0933 µM. For the same molecule, the EC50 with PAR was 0.0025 µM. In addition, the “inhibition of PARG” value on PARG was “does not inhibit”.

With `C[C@]1(c2nc3c(C(N)=O)cccc3[nH]2)CCCN1` [Veliparib], the Estimated tumor range in the data set “Estimated tumor range” is over 2000 nM. The “effect of combination with SN-38” value in [1] and in data set [5] was “Additive/synergistic effects” in each case. Besides, the “growth inhibition of the cancer cells in combination with SN-38” value in data set [2] (2 nM SN-38) was “additive/synergistic growth inhibition”. The “potency in the combination with SN-38” value in data set [2] (compared with olaparib and rucaparib) was “slightly less potent in the combination with SN-38 than olaparib and rucaparib”. The “efficacy (tumor growth)” value in data set [3] was “neither MM-398 or veliparib were efficacious as single agents”; in data set [4], “not efficacious”. Moreover, on SIRT2, the “activity on SIRT2” value is “inactive”. Besides, the EC50 with PAR was 0.0059 µM. Also, in the data set on cancer cells, the “Active Range based on XTC008” value was in the range of 1000 to 10000 nM.
